Source: US6693216B2, “Calcium double salts” (Nutrinova Nutrition Specialties & Food Ingredients GmbH, priority 2000, dated 2004)
Like-named read-outs stand apart in the source and are kept apart here.

Key:
[1] = sealed
Excerpt: Salts prepared as in example 1 were dried, stored under the specified conditions without the addition of other substances and checked at regular intervals visually for discoloration: […]

Acetic acid bacteria = settings: Part I, 1 g/l in apple juice pH 4.5, 25° C.
Molds I = settings: Part I, 1 g/l in apple juice pH 4.5, 25° C.
Gram-positive bacteria = settings: Part I, 1 g/l in apple juice pH 4.5, 25° C.
Clostridia = settings: Part I, 1 g/l in apple juice pH 4.5, 25° C.
Molds II = settings: Part I, 1 g/l in apple juice pH 4.5, 25° C.
Bacilli = settings: Part I, 1 g/l in apple juice pH 4.5, 25° C.
Gram-negative bacteria = settings: Part I, 1 g/l in apple juice pH 4.5, 25° C.
Yeasts = settings: Part I, 1 g/l in apple juice pH 4.5, 25° C.
Lactic acid bacteria = settings: Part I, 1 g/l in apple juice pH 4.5, 25° C.
Thermophilic bacilli = settings: Part I, 1 g/l in apple juice pH 4.5, 25° C.
[2] = 1 day after inoculation (1.5 × 10^4)
[3] = 3 days after inoculation (1.5 × 10^4)
[4] = 7 days after inoculation (1.5 × 10^4)
[5] = 14 days after inoculation (1.5 × 10^4)

## C/C=C/C=C/C(=O)[O-].CCC(=O)[O-].[Ca+2] [calcium propionate sorbate]
[1]; dark at 7° C.
  Time after yellow-brown discoloration of a 1% strength aqueous solution: >12 months/>12 months
  Time after yellow-brown discoloration of the powder: 12 months/>12 months
[1]; dark at 25° C.
  Time after yellow-brown discoloration of a 1% strength aqueous solution: >12 months/>12 months
  Time after yellow-brown discoloration of the powder: 12 months/>12 months
[1]; under sunlight at 7° C.
  Time after yellow-brown discoloration of a 1% strength aqueous solution: 12 months/12 months
  Time after yellow-brown discoloration of the powder: 12 months/12 months
[1]; under sunlight at 25° C.
  Time after yellow-brown discoloration of a 1% strength aqueous solution: 12 months/12 months
  Time after yellow-brown discoloration of the powder: 12 months/12 months
Acetic acid bacteria; 1 day after inoculation (2.3 × 10^4)
  Number of surviving microorganisms per g of contaminated sample, Acetic acid bacteria: 7.5 × 10^4 CFU/g
Acetic acid bacteria; 3 days after inoculation (2.3 × 10^4)
  Number of surviving microorganisms per g of contaminated sample, Acetic acid bacteria: 2.1 × 10^6 CFU/g
Acetic acid bacteria; 7 days after inoculation (2.3 × 10^4)
  Number of surviving microorganisms per g of contaminated sample, Acetic acid bacteria: 2.9 × 10^6 CFU/g
Acetic acid bacteria; 14 days after inoculation (2.3 × 10^4)
  Number of surviving microorganisms per g of contaminated sample, Acetic acid bacteria: 1.1 × 10^6 CFU/g
All microorganisms used
  Antimicrobial activity (words, general statement): inhibited particularly well
All microorganisms used; 1 g/l in apple juice pH 4.5, up to 14 days
  Preservative action against the microorganisms used: acts well and persistently against all microorganisms used, except for bacilli
All microorganisms used; same concentration, 1 g/l in apple juice pH 4.5
  Preservative action compared with the single salts: acts surprisingly better than potassium sorbate (used at the same concentration), in particular against lactic acid bacteria, thermophilic bacilli, yeasts and some molds (molds group II)
Molds I; 1 day after inoculation (1.7 × 10^4)
  Number of surviving microorganisms per g of contaminated sample, Molds I: 4.0 × 10^3 CFU/g
Molds I; 3 days after inoculation (1.7 × 10^4)
  Number of surviving microorganisms per g of contaminated sample, Molds I: 700 CFU/g
Molds I; 7 days after inoculation (1.7 × 10^4)
  Number of surviving microorganisms per g of contaminated sample, Molds I: <100 CFU/g
Molds I; 14 days after inoculation (1.7 × 10^4)
  Number of surviving microorganisms per g of contaminated sample, Molds I: <10 CFU/g
Gram-positive bacteria; 1 day after inoculation (2.6 × 10^4)
  Number of surviving microorganisms per g of contaminated sample, Gram-positive bacteria: 7.0 × 10^4 CFU/g
Gram-positive bacteria; 3 days after inoculation (2.6 × 10^4)
  Number of surviving microorganisms per g of contaminated sample, Gram-positive bacteria: 7.0 × 10^3 CFU/g
Gram-positive bacteria; 7 days after inoculation (2.6 × 10^4)
  Number of surviving microorganisms per g of contaminated sample, Gram-positive bacteria: 400 CFU/g
Gram-positive bacteria; 14 days after inoculation (2.6 × 10^4)
  Number of surviving microorganisms per g of contaminated sample, Gram-positive bacteria: <10 CFU/g
Clostridia; 1 day after inoculation (1.4 × 10^4)
  Number of surviving microorganisms per g of contaminated sample, Clostridia: 1.3 × 10^3 CFU/g
Clostridia; 3 days after inoculation (1.4 × 10^4)
  Number of surviving microorganisms per g of contaminated sample, Clostridia: 800 CFU/g
Clostridia; 7 days after inoculation (1.4 × 10^4)
  Number of surviving microorganisms per g of contaminated sample, Clostridia: 310 CFU/g
Clostridia; 14 days after inoculation (1.4 × 10^4)
  Number of surviving microorganisms per g of contaminated sample, Clostridia: 55 CFU/g
Molds II; [2]
  Number of surviving microorganisms per g of contaminated sample, Molds II: 1.1 × 10^3 CFU/g
Molds II; [3]
  Number of surviving microorganisms per g of contaminated sample, Molds II: 80 CFU/g
Molds II; [4]
  Number of surviving microorganisms per g of contaminated sample, Molds II: 50 CFU/g
Molds II; [5]
  Number of surviving microorganisms per g of contaminated sample, Molds II: <10 CFU/g
Bacilli; [2]
  Number of surviving microorganisms per g of contaminated sample, Bacilli: 2.3 × 10^4 CFU/g
Bacilli; [3]
  Number of surviving microorganisms per g of contaminated sample, Bacilli: 1.4 × 10^3 CFU/g
Bacilli; [4]
  Number of surviving microorganisms per g of contaminated sample, Bacilli: 1.3 × 10^3 CFU/g
Bacilli; [5]
  Number of surviving microorganisms per g of contaminated sample, Bacilli: 50 CFU/g
Gram-negative bacteria; 1 day after inoculation (2.4 × 10^4)
  Number of surviving microorganisms per g of contaminated sample, Gram-negative bacteria: 3.5 × 10^4 CFU/g
Gram-negative bacteria; 3 days after inoculation (2.4 × 10^4)
  Number of surviving microorganisms per g of contaminated sample, Gram-negative bacteria: 1.7 × 10^3 CFU/g
Gram-negative bacteria; 7 days after inoculation (2.4 × 10^4)
  Number of surviving microorganisms per g of contaminated sample, Gram-negative bacteria: 900 CFU/g
Gram-negative bacteria; 14 days after inoculation (2.4 × 10^4)
  Number of surviving microorganisms per g of contaminated sample, Gram-negative bacteria: <10 CFU/g
Yeasts; 1 day after inoculation (2.5 × 10^4)
  Number of surviving microorganisms per g of contaminated sample, Yeasts: 8.5 × 10^4 CFU/g
Yeasts; 3 days after inoculation (2.5 × 10^4)
  Number of surviving microorganisms per g of contaminated sample, Yeasts: 5.0 × 10^4 CFU/g
Yeasts; 7 days after inoculation (2.5 × 10^4)
  Number of surviving microorganisms per g of contaminated sample, Yeasts: 1.2 × 10^3 CFU/g
Yeasts; 14 days after inoculation (2.5 × 10^4)
  Number of surviving microorganisms per g of contaminated sample, Yeasts: 10 CFU/g
Lactic acid bacteria; 1 day after inoculation (1.9 × 10^4)
  Number of surviving microorganisms per g of contaminated sample, Lactic acid bacteria: 4.0 × 10^4 CFU/g
Lactic acid bacteria; 3 days after inoculation (1.9 × 10^4)
  Number of surviving microorganisms per g of contaminated sample, Lactic acid bacteria: 3.2 × 10^5 CFU/g
Lactic acid bacteria; 7 days after inoculation (1.9 × 10^4)
  Number of surviving microorganisms per g of contaminated sample, Lactic acid bacteria: 2.4 × 10^3 CFU/g
Lactic acid bacteria; 14 days after inoculation (1.9 × 10^4)
  Number of surviving microorganisms per g of contaminated sample, Lactic acid bacteria: 130 CFU/g
Thermophilic bacilli; 1 day after inoculation (1.3 × 10^4)
  Number of surviving microorganisms per g of contaminated sample, Thermophilic bacilli: 1.1 × 10^3 CFU/g
Thermophilic bacilli; 3 days after inoculation (1.3 × 10^4)
  Number of surviving microorganisms per g of contaminated sample, Thermophilic bacilli: <100 CFU/g
Thermophilic bacilli; 7 days after inoculation (1.3 × 10^4)
  Number of surviving microorganisms per g of contaminated sample, Thermophilic bacilli: 10 CFU/g
Thermophilic bacilli; 14 days after inoculation (1.3 × 10^4)
  Number of surviving microorganisms per g of contaminated sample, Thermophilic bacilli: 5 CFU/g
